In publication PMC9849758, “Chemically diverse activity-based probes with unexpected inhibitory mechanisms targeting trypsin-like serine proteases” (Frontiers in Chemistry, 2023):
Read-outs that look alike come from different tables or passages of the source.

How the values were obtained:
Format in all cases: biochemical
[1] = target: T1, Cathepsin G (cathepsin G human neutrophil) (Homo sapiens, UniProt P08311); test: IC50 determination, spectrophotometric protease assay
T1 construct: Cathepsin G (cathepsin G human neutrophil, Sigma-Aldrich); purchased Sigma-Aldrich; host or cells: human neutrophil
T1 sequence (P08311 21-255): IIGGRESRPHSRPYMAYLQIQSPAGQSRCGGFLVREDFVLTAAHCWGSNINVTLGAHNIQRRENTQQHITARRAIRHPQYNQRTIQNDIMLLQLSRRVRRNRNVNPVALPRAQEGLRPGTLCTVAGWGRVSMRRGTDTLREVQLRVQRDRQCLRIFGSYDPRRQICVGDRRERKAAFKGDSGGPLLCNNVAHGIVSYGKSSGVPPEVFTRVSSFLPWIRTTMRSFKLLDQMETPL
Experimental: (§1) The IC50 values were determined using a spectrophotometric assay. All the experiments were conducted in duplicate. The readout consisted of evaluating the protease-mediated release of the chromophore para-nitroaniline (pNA) or fluorophore 7-amino-4-methyl coumarin (AMC) moieties from the respective substrates. Enzymatic activity was measured for 30 min at 37°C. All compounds were initially screened at three concentrations (10, 1, and .1 μM) to estimate the range of the IC50 value. Those which were able to reduce protease activity by at least 50% at a concentration of 10 μM were submitted to an exact IC50 determination. […] A third independent experiment was performed when the standard deviation of the two independent experiments was higher than […]. IC50 values were obtained by fitting the data with the four-parameter logistics equation using GraphPad Prism 9.
(§2) The conditions for each protease are described as follows, the concentration of substrate used was at the corresponding Km.

[2] = target: T2, TLCK-treated pancreatic bovine chymotrypsin (Bos taurus, UniProt P00766); test: as above
T2 construct: TLCK-treated pancreatic bovine chymotrypsin (Sigma-Aldrich); purchased Sigma-Aldrich; host or cells: bovine pancreas
Experimental: as §1, §2

[3] = target: T3, Thrombin (recombinant thrombin) (Homo sapiens, UniProt P00734); test: as above
T3 construct: purchased R&D
Experimental: as §1, §2

[4] = target: T4, Trypsin-3 (recombinant trypsin-3) (Homo sapiens, UniProt P35030); test: as above
T4 construct: purchased R&D
T4 sequence (P35030 1-304): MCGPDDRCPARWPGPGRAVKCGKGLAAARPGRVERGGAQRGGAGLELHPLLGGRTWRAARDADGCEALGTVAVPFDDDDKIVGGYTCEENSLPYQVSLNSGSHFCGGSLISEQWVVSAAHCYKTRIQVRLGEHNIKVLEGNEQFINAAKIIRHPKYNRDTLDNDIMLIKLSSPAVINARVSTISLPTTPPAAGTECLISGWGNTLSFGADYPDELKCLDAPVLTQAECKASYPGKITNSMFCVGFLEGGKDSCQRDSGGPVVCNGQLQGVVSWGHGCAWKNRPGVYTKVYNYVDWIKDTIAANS
Experimental: as §1, §2

[5] = target: T5, uPA (recombinant urokinase plasminogen activator) (Homo sapiens, UniProt P00749); test: as above
T5 construct: purchased HYPHEN BioMed
Experimental: as §1, §2

[6] = target: T6, β-tryptase (recombinant tryptase β-2) (Homo sapiens, UniProt P20231); test: as above
T6 construct: purchased EnzoLife Sciences
T6 sequence (P20231 31-275): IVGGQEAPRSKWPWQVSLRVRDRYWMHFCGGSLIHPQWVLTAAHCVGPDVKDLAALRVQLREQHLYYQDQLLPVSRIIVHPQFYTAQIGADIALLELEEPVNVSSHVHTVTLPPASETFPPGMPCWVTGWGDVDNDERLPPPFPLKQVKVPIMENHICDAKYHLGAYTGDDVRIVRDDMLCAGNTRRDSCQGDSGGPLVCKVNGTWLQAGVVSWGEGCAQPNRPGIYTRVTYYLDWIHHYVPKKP
Experimental: as §1, §2

[7] = target: T7, Trypsin-3 (Homo sapiens, UniProt P35030); test: Jump dilution, determination of inhibition type; parameters: purchased R&D; settings: inhibitor at 10 times IC50, 15 min, diluted 10-fold or 100-fold; Rev./Irrev.
T7 sequence (P35030 1-304): T4 sequence (P35030 1-304)
Experimental: The dissociation of the enzyme-inhibitor complex was monitored by substrate hydrolysis over time ([Joossens et al., 2006]).
Because ABPs are designed to be irreversible serine protease inhibitors, the IC50 is exclusively used as a first discriminatory evaluation. When an inhibitor is irreversible, its IC50 value not only depends on the substrate and enzyme concentration but also on the time of incubation with the enzyme before the reaction is started by adding the substrate. […] The progress curve in the presence of an irreversible inhibitor will show final velocities equal to zero (Figure 6C). In contrast, for a reversible inhibitor, progress curves have a non-zero final steady-state velocity (Figure 6A) ([McWhirter, 2021]). To corroborate the inhibitory mechanism of the compounds, jump-dilution assays were performed. These use an inhibitor concentration of 10-fold the IC50 for the incubation, and a posteriori, the reaction mixture is diluted 10-fold or 100-fold before adding the substrate. In the case of an irreversible inhibitor, enzymatic activity is not regained (Figure 6D), whereas, in the case of a reversible compound, a slow release of the inhibitor and a gradual increase of the enzymatic activity rate is observed (Figure 6B) ([Copeland, 2013]; [McWhirter, 2021]). The jump-dilution assays confirmed the behavior described by the progress curves.
2.2.2 Jump dilution results
Supplementary Table 2. Jump dilution of selected alkyne and desthiobiotin probes against a panel of trypsin-like serine proteases. […]
# R R DtBa 3 tryptase Thrombin uPA CatG
32b H Alk Irrev. Irrev. Rev. Irrev. Rev.
45b DtB Irrev. Irrev. Rev. N.D. N.D.
33b Alk Irrev. Irrev. Rev. Irrev. Rev.
46b Cl DtB Irrev. Irrev. Rev. N.D. N.D.
34b H Alk Rev. Rev. Rev. Irrev. Rev.
50b DtB Rev. Rev. Rev. Irrev. Rev.
35b Alk Rev. Rev. Rev. Irrev. Rev.
52b NHCOMe DtB Rev. Rev. Rev. Irrev. Rev.
36b Alk Rev. Rev. Rev. Irrev. Rev.
54b Cl DtB Rev. Rev. Rev. Irrev. Rev.
37b Alk Irrev. Irrev. N.D. Irrev. Irrev.
55b H DtB Irrev. Irrev. N.D. Irrev. Irrev.
38b Alk Irrev. Irrev. N.D. Irrev. Irrev.
56b NHCOMe DtB Irrev. Irrev. N.D. Irrev. Irrev.
39b Alk Irrev. Irrev. N.D. Irrev. Rev.
57b Cl DtB Irrev. Irrev. N.D. Irrev. Rev.
41b H Alk Irrev. Irrev. Irrev. N.D. N.D.
31b Pro-Lys H Alk Irrev. Irrev. Irrev. Irrev. N.D. a Alk: ABP precursor bearing an alkyne; DtB: desthiobiotin probe b Panel of serine proteases abbreviations: urokinase plasminogen activator (uPA), cathepsin G (catG) N.D.: IC50 is greater than 10µM, and jump dilution was not performed
2.2.3 Progress curves and Jump dilution experiments
Kinetic assays were performed in the following manner. The inhibitor was mixed with the substrate, and the buffer solution with the enzyme was added at the time zero. The progress curves show the release of para-nitroaniline (pNA) or 7-amino-4-methyl coumarin (AMC) as a function of time.
To monitor the dissociation of the inhibitor-enzyme, aliquots of the enzyme were incubated at 37 °C without and with the inhibitor at a concentration 10 times higher than its IC 50. The enzyme […]
min, the aliquots were diluted 10-fold or 100-fold into the substrate concentration and assay buffer used for the IC50 determination. The dissociation of the enzyme-inhibitor complex was monitored by substrate hydrolysis over time. Blue lines represent the control where no inhibitor was present. Pink lines represent the assay with inhibitor.

[8] = read-out: CatG IC50, desthiobiotin probes, 15 min preincubation at 37°C, mean ± SD
[9] = read-out: ChTryp IC50, desthiobiotin probes, 15 min preincubation at 37°C, mean ± SD
[10] = read-out: Thrombin IC50, desthiobiotin probes, 15 min preincubation at 37°C, mean ± SD
[11] = read-out: Trypsin-3 IC50, desthiobiotin probes, 15 min preincubation at 37°C, mean ± SD
[12] = read-out: uPA IC50, desthiobiotin probes, 15 min preincubation at 37°C, mean ± SD
[13] = read-out: β-tryptase IC50, desthiobiotin probes, 15 min preincubation at 37°C, mean ± SD

Row | Structure (SMILES) | IC50 [1, 8] [nM] | IC50 [2, 9] [nM] | IC50 [3, 10] [nM] | IC50 [4, 11] [nM] | IC50 [5, 12] [nM] | IC50 [6, 13] [nM] | Trypsin-3 jump dilution result [7] | IC50 [1] [nM] | IC50 [2] [nM] | IC50 [3] [nM] | IC50 [4] [nM] | IC50 [5] [nM] | IC50 [6] [nM]
1 | C[C@@H]1NC(=O)N[C@@H]1CCCCCC(=O)NCCOCCOCCOCCn1cc(CCCOC(=O)NC(CCCNC(=N)N)P(=O)(Oc2ccccc2)Oc2ccccc2)nn1 (stereo partly drawn) [45b] | > 10000 | > 10000 | 610 ± 170 | 220 ± 20 | > 10000 | 800 ± 50 | Irrev. |  |  |  |  |  | 
2 | C#CCCCOC(=O)NC(c1ccc(NC(=N)N)cc1)P(=O)(Oc1ccc(NC(C)=O)cc1)Oc1ccc(NC(C)=O)cc1 (stereo not drawn) [38b, Pent-4-yn-1-yl ((bis(4-acetamidophenoxy)phosphoryl)(4-guanidinophenyl)methyl) carbamate] |  |  |  |  |  |  | Irrev. | 130 ± 10 | > 10000 | > 10000 | 40 ± 15 | 1520 ± 400 | 120 ± 20
3 | C[C@@H]1NC(=O)N[C@@H]1CCCCCC(=O)NCCOCCOCCOCCn1cc(CCCOC(=O)NC(c2ccc(NC(=N)N)cc2)P(=O)(Oc2ccccc2)Oc2ccccc2)nn1 (stereo partly drawn) [55b] | 1620 ± 90 | > 10000 | > 10000 | 240 ± 10 | 2220 ± 70 | 370 ± 90 | Irrev. |  |  |  |  |  | 
